Patent publication US20060217390A1, “Cycloalkl, aryl and heteroaryl amino isothiazoles for the treatment of Hepatitis C virus” (priority 2005, published 2006)
Like-named read-outs stand apart in the source and are kept apart here.

Experiments:
[1] = tested on: HCV Con1 subgenomic replicon in Huh-7 cells (NK/luc-ubi-neo); assay: HCV replicon assay (luciferase reporter); format: cell-based; details: anti-HCV activity, class symbols; read-out: Range of EC50 in HCV replicon assay
Description: A human hepatoma cell line (Huh-7) containing replicating HCV Con1 subgenomic replicon with a luciferase reporter gene (luc-ubi-neo) was used to evaluate anti-HCV activity of the compounds. In this assay, the level of luciferase signal correlates directly with the viral RNA replication. The HCV replicon-reporter cell line (NK/luc-ubi-neo) was cultured in DMEM medium supplemented with 10% fetal bovine serum and 0.5 mg/ml Geneticin (G418). Cells were maintained in a subconfluent state to ensure high levels of HCV replicon RNA synthesis.
To evaluate the antiviral activity of compounds, serial dilutions were prepared with concentrations ranging from 0.14 to 300 μM. Diluted compounds were transferred to a 96-well plate followed by the addition of replicon cells (6000 cells per well). Cells were incubated with the compounds for 48 hours after which luciferase activity was measured.

Huh-7 cells = tested on: Huh-7 cells
Source text: A Huh-7 cell line carrying a luciferase reporter gene (driven by a HIV LTR promoter) stably integrated into the chromosome was used to analyze the cytotoxic effect of the selected compounds. This cell line (LTR-luc) was maintained in DMEM medium with 10% FBS. Design of the cytotoxicity assay was similar to that of the HCV replicon assay.

[2] = tested on: parental replicon cells (I389/NS3-3); assay: Sensitivity of parental (wild-type) replicon cells, HCV replicon RNA by quantitative RT-PCR; format: cell-based; details: Wild-type replicon cell line
Description: (§1) A replicon-containing cell line (I389/NS3-3) was used to select the resistant replicons against Compound 1 (Lohmann et al., Science 285:110-113, 1999). Replicon cells were plated in a 100 mm dish, under a subconfluent condition (approximately at 40% confluency). After 24 hours, Compound 1 was added to the cells with the final concentration of 2 μM in the medium containing 1 mg of G418 per ml. After 3 weeks, colonies of cells resistant to Compound 1 were isolated and expanded. Three independent cell lines (w1, w3 and w4) with growth rate similar to that of the parental replicon cells were selected to test for their sensitivity to Compound 1.
(§2) To confirm that viral RNAs in the selected cell lines were resistant to Compound 1, the cells were treated with the compound with concentrations from 0.05 to 5 μM. After 72-hours of treatment, cells were lysed and the cell lysates were diluted with RNase-free water, from which 5 μl was used to quantify the HCV replicon RNA by using real-time quantitative reverse transcriptase (RT) PCR assay (Cheney et al., Virology 297:298-306, 2002). Same quantitative RT-PCR protocol was used to determine the level of the cellular glyceraldhehyde-3-phosphate dehydrogenase (GAPDH) RNA in the same cell lysate, which served as an internal control to normalize the difference of total RNAs. To calculate the EC50 values of Compound 1 against the resistant cell lines, the relative cycle threshold (CT) for the HCV and GAPDH was determined. […] Identification of the Molecular Target

[3] = tested on: resistant replicon cell lines (w1, w3 and w4); assay: Sensitivity of resistant replicon cell lines, HCV replicon RNA by quantitative RT-PCR; format: cell-based; details: for EC50: Hepatitis C virus, 72 h, HCV replicon RNA by RT-PCR, 72 hours of treatment; for Fold over wild-type: fold of EC50
Description: as §1, §2

HCV replicase complexes = target: T1, HCV replicase complexes (Hepatitis C virus genotype 1b, UniProt Q9WMX2); assay: In vitro HCV replicase complex assay; format: biochemical; details: crude membrane fraction of I389/NS3-3 replicon cells
T1 construct: viral non-structural proteins (NS3, NS4A, NS4B, NS5A and NS5B); expressed in transfected cells; host or cells: HCV subgenomic replicon cell line (I389/NS3-3)
T1 sequence (Q9WMX2 2420-3010, one chain of several): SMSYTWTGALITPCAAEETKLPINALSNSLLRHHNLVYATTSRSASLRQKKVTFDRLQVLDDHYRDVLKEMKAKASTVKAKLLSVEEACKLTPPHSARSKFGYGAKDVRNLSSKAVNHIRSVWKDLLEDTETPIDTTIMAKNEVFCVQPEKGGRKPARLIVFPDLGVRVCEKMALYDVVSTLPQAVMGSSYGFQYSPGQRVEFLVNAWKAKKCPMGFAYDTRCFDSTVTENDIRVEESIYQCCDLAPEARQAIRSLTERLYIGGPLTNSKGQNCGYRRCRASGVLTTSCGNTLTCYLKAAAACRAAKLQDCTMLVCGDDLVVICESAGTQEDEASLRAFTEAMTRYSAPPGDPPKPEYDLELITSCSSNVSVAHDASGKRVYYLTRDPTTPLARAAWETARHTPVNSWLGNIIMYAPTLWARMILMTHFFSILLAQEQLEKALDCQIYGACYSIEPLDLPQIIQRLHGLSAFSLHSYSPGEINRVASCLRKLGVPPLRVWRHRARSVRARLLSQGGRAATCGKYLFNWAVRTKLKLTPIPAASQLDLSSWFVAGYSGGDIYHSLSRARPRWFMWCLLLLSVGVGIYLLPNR
Description: Crude membrane fraction containing the replicase complexes (RC) was isolated from the HCV subgenomic replicon cell line (I389/NS3-3) (Lohmann et al., Science 285:110-113, 1999) through Dounce homogenization and high-speed centrifugation (Lai et al., J. Virol. 73:2295-2300). Standard assay mixtures contained 50 mM HEPES (pH 7.3), 10 mM KCl, 10 mM MgCl2, 20 units of ribonuclease inhibitor, 10 μg/ml actinomycin D, 0.5 mM of ATP, GTP, CTP, 10 μCi of [α-^33P] UTP and 0.5 μl of the membrane fraction in a total volume of 20 μl. To determine the inhibitory effect of compounds on the HCV replicase complexes, pre-incubation of the RC membrane fraction with tested compounds was performed in a reaction mixture at 4° C. for 15 minutes. The reaction was then initiated by the addition of the radiolabeled UTP and cold nucleotides and incubated at 30° C. for 1 hour. Products were extracted with phenol/chloroform, precipitated with ethanol, and separated on a 1% agarose gel. After electrophoresis, the gel was dried prior to autoradiography. Radioactivity incorporated into viral RNA was quantitated by using a Phosphorimager (Amersham Biosciences Corp., Piscataway, N.J.) and was used to determine the IC50 value. A number of the exemplary compounds were potent inhibitors that blocked viral RNA synthesis catalyzed by HCV replicase complexes, with IC50 values in the nM range (Table 2).

[4] = read-out: Range of CC50 in cytotoxicity assay, cytotoxicity, class symbols

SMILES | EC50 [1] | CC50 (Huh-7 cells; [4]) | CC50 (Huh-7 cells) | further results
Cc1cccc(C)c1Sc1ccc(Nc2s[nH]c(=O)c2C#N)cc1 | 1 to 10 µM | < 50 µM | – | –
CN(C)c1ccc2ccccc2c1Nc1s[nH]c(=O)c1C#N | > 50 µM | > 50 µM | – | –
N#Cc1c(Nc2ccccc2C(F)(F)F)s[nH]c1=O | 10 to 50 µM | – | > 50 µM | –
N#Cc1c(Nc2cc(F)c(Br)c(F)c2)s[nH]c1=O | < 1 µM | > 50 µM | – | –
N#Cc1c(Nc2ccc(Cl)cn2)s[nH]c1=O | 10 to 50 µM | > 50 µM | – | –
N#Cc1c(NC2CCc3ccccc32)s[nH]c1=O (stereo not drawn) | 1 to 10 µM | – | > 50 µM | –
COC(=O)c1ccccc1Nc1s[nH]c(=O)c1C#N | > 50 µM | – | > 50 µM | –
N#Cc1c(Nc2ccc(S(=O)(=O)Nc3ccccc3)cc2)s[nH]c1=O | > 50 µM | – | > 50 µM | –
N#Cc1c(Nc2cccc(Br)n2)s[nH]c1=O | 10 to 50 µM | > 50 µM | – | –
N#Cc1c(Nc2cc(Br)cc(C(F)(F)F)c2)s[nH]c1=O | < 1 µM | > 50 µM | – | –
CC(C)c1cccc(C(C)C)c1Nc1s[nH]c(=O)c1C#N | 10 to 50 µM | – | > 50 µM | –
N#Cc1c(Nc2cc(Cl)nc(Cl)c2)s[nH]c1=O | 1 to 10 µM | < 50 µM | – | –
N#Cc1c(Nc2cc(Cl)c(Cl)c(Cl)c2)s[nH]c1=O | < 1 µM | – | < 50 µM | –
N#Cc1c(NC23CC4CC(CC(C4)C2)C3)s[nH]c1=O | 1 to 10 µM | – | > 50 µM | –
N#Cc1c(Nc2ccc(Br)c(Cl)c2)s[nH]c1=O | < 1 µM | – | > 50 µM | –
N#Cc1c(Nc2ccc(Br)cn2)s[nH]c1=O | 10 to 50 µM | > 50 µM | – | –
N#Cc1c(NCC2CCCO2)s[nH]c1=O (stereo not drawn) | > 50 µM | – | > 50 µM | –
C[C@@]1(O)[C@H](O)[C@@H](CO)O[C@H]1n1cnc2c(N)ncnc21 [2′-C-methyl-adenosine] | – | – | – | EC50 ([2]; Hepatitis C virus, HCV replicon RNA by RT-PCR, 72 hours of treatment): 0.36 µM; Fold over wild-type ([2]; fold of EC50): 1; EC50 ([3]; resistant cell line W1): 0.16 µM; EC50 ([3]; resistant cell line W3): 0.26 µM; EC50 ([3]; resistant cell line W4): 0.31 µM; sensitivity of resistant cell lines to inhibition ([3]; cell lines w1, w3, w4 selected with Compound 1): still sensitive to inhibition; Fold over wild-type ([3]; resistant cell line W1): 0.4; Fold over wild-type ([3]; resistant cell line W3): 0.7; Fold over wild-type ([3]; resistant cell line W4): 0.9
N#Cc1c(NCCc2ccc(O)cc2)s[nH]c1=O | > 50 µM | – | > 50 µM | –
N#Cc1c(Nc2cccc(Cl)c2Cl)s[nH]c1=O | > 50 µM | – | > 50 µM | –
COC(=O)c1ccc(Nc2s[nH]c(=O)c2C#N)cc1 | 10 to 50 µM | > 50 µM | – | –
N#Cc1c(Nc2ccc(C(F)(F)F)cn2)s[nH]c1=O | 10 to 50 µM | – | > 50 µM | –
N#Cc1c(O)nsc1Nc1cc(Cl)cc(Cl)c1 | – | – | – | IC50 (HCV replicase complexes): < 0.05 µM
N#Cc1c(Nc2ccc(F)cc2)s[nH]c1=O | 10 to 50 µM | – | > 50 µM | –
CC(C)c1ccccc1Nc1s[nH]c(=O)c1C#N | > 50 µM | – | > 50 µM | –
N#Cc1c(Nc2ccc(Cl)c(Cl)c2)s[nH]c1=O | < 1 µM | – | > 50 µM | –
N#Cc1c(Nc2ccc(Cc3ccccc3)cc2)s[nH]c1=O | > 50 µM | – | > 50 µM | –
